Measurements as given in paper PMC9926489, “Chemical Optimization of Selective Pseudomonas aeruginosa LasB Elastase Inhibitors and Their Impact on LasB-Mediated Activation of IL-1β in Cellular and Animal Infection Models” (ACS Infectious Diseases, 2023).
Converted amounts (≈) assume the structure as drawn.

What was measured:
purified LasB = target: T1, purified LasB (Pseudomonas aeruginosa, UniProt P14756); assay: LasB inhibition, fluorimetric Abz-AGLA-Nba hydrolysis assay with purified LasB; type: biochemical
T1 construct: The mature LasB protein is a 33 kDa metalloprotease, which is secreted from P. aeruginosa; host or cells: P. aeruginosa PAO1 (native secretion, culture supernatant)
From the text: (§1) This was chosen as the starting point for a medicinal chemistry-driven lead optimization program aiming to improve potency and solubility whilst retaining selectivity against host metalloenzymes. All synthesized compounds were initially assessed in a fluorimetric assay measuring hydrolysis of a fluorogenic substrate Abz-Ala-Gly-Leu-Ala-4-nitrobenzylamide (Abz-AGLA-Nba) by purified LasB and IC50 values determined (Tables 1 and 2). Inhibition of elastin hydrolytic activity was confirmed using an orthogonal assay measuring hydrolysis of Elastin Congo Red (ECR) complex by LasB prepared directly from a P. aeruginosa culture supernatant (Tables 1 and 2). […] Aqueous solubility was determined for most compounds (Tables 1 and 2).
Native LasB protein was purified from culture supernatants of P. aeruginosa strain PAO1 (Charles River Laboratories, U.K.). Briefly, the sample was concentrated by ultrafiltration and the protein was purified by chromatography using an anion exchange (pH 8.5) step followed by gel filtration. This procedure yielded an enzyme preparation (0.8 mg/mL) of >98% purity. The enzyme was stored at −80 °C.
LasB inhibition assays were performed using purified LasB enzyme (1 ng/well) for compound screening or using culture supernatants (prepared as described in the ECR assay) for testing LasB variants. Hydrolysis of the fluorogenic peptide substrate 2-aminobenzoyl-Ala-Gly-Leu-Ala-4-nitrobenzylamide (Abz-AGLA-Nba; Peptide International) in 50 mM Tris-HCl (pH 7.4), supplemented with 2.5 mM CaCl2 was followed using an Envision microplate reader (PerkinElmer) at 315 nm excitation and 430 nm emission. For screening of lead compounds, assays were performed in the presence of 0.01% Triton X-100 with a range of inhibitor concentrations from 0.003 to 3.2 μM. IC50 values were determined from Hill plots using Dotmatics Studies ELN software. For the mechanism of inhibition studies, hydrolysis rates were measured in the presence of variable concentrations of substrate and inhibitor, and the inhibition constant (Ki) was determined using Dixon plot analysis.[31]

[1] = Thermodynamic solubility in PBS (pH 7.4); type: physicochemical; conditions: aqueous buffer, thermodynamic from solid
[2] = target: T2, LasB (P. aeruginosa PAO1 culture supernatant) (Pseudomonas aeruginosa, UniProt P14756); assay: Elastin Congo Red (ECR) assay, elastin hydrolysis by dialyzed PAO1 culture supernatant; type: biochemical; conditions: 25 μM inhibitor
T2 construct: The mature LasB protein is a 33 kDa metalloprotease, which is secreted from P. aeruginosa; endogenous in cells; host or cells: P. aeruginosa PAO1 culture supernatant, filtered and dialyzed
From the text: as §1
Inhibition of elastin hydrolysis by native LasB, secreted in P. aeruginosa culture supernatants, was measured using the Elastin Congo Red (ECR) assay. Culture supernatants from P. aeruginosa strain PAO1, grown in LB medium at 37 °C for 24 h, were filtered and dialyzed against 50 mM Tris-HCl pH 7.4, 2.5 mM CaCl2 solution at 4 °C and supplemented with 0.01%Triton X-100, 10 mg/mL ECR (Sigma) and 25 μM inhibitor compounds. The reaction mixture was incubated for 16 h at 37 °C with shaking before centrifugation and recovery of the supernatant and measurement of solubilized congo red by absorbance (OD495) using an EnSight multimode plate reader (PerkinElmer).

[3] = target: T3, secreted LasB in P. aeruginosa PAO1-infected THP-1 macrophages (Pseudomonas aeruginosa, UniProt P14756); assay: LasB activity (Sub115 hydrolysis) in supernatants of P. aeruginosa-infected THP-1 macrophages; type: cell-based; conditions: infected THP-1 cells, 5 μM
T3 construct: The mature LasB protein is a 33 kDa metalloprotease, which is secreted from P. aeruginosa; endogenous in cells; host or cells: P. aeruginosa PAO1 infecting human THP-1 macrophages (MOI 10:1); supernatant after 2 h
Method: (§2) Further to showing in vitro inhibition of LasB-mediated pro-IL-1β proteolysis, experiments were performed to determine the effect of compounds 12 and 16 on IL-1β activation and functionality in human macrophage cell cultures infected with P. aeruginosa PAO1, or an isogenic lasB deletion mutant thereof (ΔlasB). In these experiments, the levels of LasB activity in culture supernatants were measured via hydrolysis of the Sub115 fluorescent peptide, while the effect of LasB activity on IL-1β activation (functionality) was measured using a luciferase reporter cell line sensitive to IL-1β induction (Figure 3).
Human THP-1 macrophages were cultured by conventional methods then, pre-infection, culture media were replaced by RPMI lacking phenol red and antibiotics. Compounds VX-765 (caspase-1 inhibitor, developed by Vertex) and/or LasB inhibitors were added, immediately followed by inoculation with P. aeruginosa PAO1 or an isogenic lasB deletion mutant (ΔlasB), previously grown in Luria broth to late exponential phase (OD600 = 1.2) then washed and diluted in PBS, at a multiplicity of infection (MOI) of 10 to 1. After 2 h post-infection, 50 μL aliquots of supernatant were removed and used to quantitate both LasB activity and IL-1β functionality. To determine LasB activity, 50 μL of supernatant was added to Sub115 IL-1β peptide and hydrolysis of Sub115 was monitored spectrophotometrically with excitation at 355 nm and emission at 450 nm, as described above. Results were expressed as relative fluorescence units (RFU).
In the first variation, experimental infections were performed with P. aeruginosa PAO1 and ΔlasB bacteria incubated with varying quantities of inhibitor at final concentrations ranging from 0.5 to 8 μM. In the second, cells were treated and infected in the same manner and also treated with 5 μM VX-765 to provide a control for IL-1β activation by the inflammasome pathway.

IL-1β activation = IL-1β activation in P. aeruginosa-infected THP-1 macrophages (HEK IL-1R-lux reporter assay); type: cell-based, human; conditions: infected THP-1 cells, 5 μM
Method: as §2
Human THP-1 macrophages were cultured by conventional methods then, pre-infection, culture media were replaced by RPMI lacking phenol red and antibiotics. […] After 2 h post-infection, 50 μL aliquots of supernatant were removed and used to quantitate both LasB activity and IL-1β functionality. To determine LasB activity, 50 μL of supernatant was added to Sub115 IL-1β peptide and hydrolysis of Sub115 was monitored spectrophotometrically with excitation at 355 nm and emission at 450 nm, as described above. Results were expressed as relative fluorescence units (RFU).
To determine IL-1β functionality, generation of an IL-1 signal was quantified by adding 50 μL of supernatant to HEK IL-1R-lux reporter cells cultured in RPMI supplemented with 5% heat-inactivated FBS, 200 μg/mL penicillin/streptomycin, 200 μg/mL hygromycin, 100 μg/mL zeomycin, and 0.5 μg/mL puromycin. No bacteria survived in this antibiotic condition; 18 h post-treatment, IL-1β-dependent luciferase induction was assayed by luminescence measured with D-luciferin substrate (Steady-Luc, Biotium) on a multimode reader (PerkinElmer) and expressed as relative luminescence units (RU), as previously described.[16]
In the first variation, experimental infections were performed with P. aeruginosa PAO1 and ΔlasB bacteria incubated with varying quantities of inhibitor at final concentrations ranging from 0.5 to 8 μM. […]

T1 sequence (P14756 198-498): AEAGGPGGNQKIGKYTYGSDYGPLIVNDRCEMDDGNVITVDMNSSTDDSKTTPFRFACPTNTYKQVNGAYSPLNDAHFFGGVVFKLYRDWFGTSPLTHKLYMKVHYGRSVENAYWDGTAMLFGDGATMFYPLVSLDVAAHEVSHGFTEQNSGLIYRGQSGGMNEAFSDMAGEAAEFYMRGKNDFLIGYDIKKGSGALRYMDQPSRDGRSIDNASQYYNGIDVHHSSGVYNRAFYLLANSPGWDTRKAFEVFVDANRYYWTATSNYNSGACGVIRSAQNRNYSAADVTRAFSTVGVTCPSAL
T2 sequence (P14756 198-498): as above
T3 sequence (P14756 198-498): as above

Row | Compound | IC50 (purified LasB) [nM] | solubility [1] [µg/mL] | Elastin hydrolysis @ 25 μM (% inh) [2] [% inh] | effect on LasB activity [3] | effect on IL-1β activation (IL-1β activation)
1 | COc1cc2sc(CNC(=O)C3(CC(=O)O)Cc4ccccc4C3)nc2cc1OCCC[N+](C)(CCO)CCO [Compound 15] | 190 | 17600 | 69 | – | –
2 | CN(C)CCOc1ccc2sc(CNC(=O)C3(CC(=O)O)Cc4ccccc4C3)nc2c1 [Compound 7] | 670 | 4200 (≈ 9.26 mM) | 42 | – | –
3 | O=C(O)CC1(C(=O)NCc2nc3cc(Cl)ccc3s2)Cc2ccccc2C1 [Compound 2] | 350 | – | 58 | – | –
4 | C[N+]1(C)CCN(c2ccc3nc(CNC(=O)C4(CC(=O)O)Cc5ccccc5C4)sc3c2)CC1 [Compound 8] | 1350 | 18700 | 33 | – | –
5 | O=C(O)CC1(C(=O)NCc2nc3ccccc3s2)Cc2ccccc2C1 [Compound 1] | 410 | 580 (≈ 1.58 mM) | 69 | – | –
6 | C[N+](C)(C)CCOc1ccc2sc(CNC(=O)C3(CC(=O)O)Cc4ccccc4C3)nc2c1 [Compound 9] | 820 | 18100 | 40 | – | –
7 | COc1cc2sc(CNC(=O)C3(CC(=O)O)Cc4ccccc4C3)nc2cc1OCC1CC[N+](C)(C)CC1 [Compound 13] | 130 | 15800 | 66 | – | –
8 | CCO[C@@H]1OC(=O)C[C@@H]1NC(=O)[C@@H]1CCCN1C(=O)[C@@H](NC(=O)c1ccc(N)c(Cl)c1)C(C)(C)C [VX-765, reference compound] | – | – | – | no effect | reduced IL-1β activation
9 | COc1cc2sc(CNC(=O)C3(CC(=O)O)Cc4cc(F)c(F)cc4C3)nc2cc1OCC1CC[N+](C)(C)CC1 [Compound 14] | 90 | 17800 | 72 | – | –
10 | O=C(O)CC1(C(=O)NCc2nc3cc4c(cc3s2)OCO4)Cc2ccccc2C1 [Compound 5] | 120 | 2000 (≈ 4.87 mM) | 75 | – | –
11 | COc1cc2sc(CNC(=O)C3(CC(=O)O)Cc4ccccc4C3)nc2cc1OCCCN(C)C [Compound 11] | 80 | – | 69 | – | –
12 | O=C(O)CC1(C(=O)NCc2nc3ccccc3s2)Cc2cc(F)c(F)cc2C1 [Compound 10] | 140 | 600 (≈ 1.49 mM) | 66 | – | –
13 | CN1CCN(c2ccc3nc(CNC(=O)C4(CC(=O)O)Cc5ccccc5C4)sc3c2)CC1 [Compound 6] | 1570 | 3400 (≈ 7.32 mM) | 39 | – | –
14 | COc1cc2nc(CNC(=O)C3(CC(=O)O)Cc4ccccc4C3)sc2cc1OC [Compound 4] | 20 | 2000 (≈ 4.69 mM) | 82 | – | –
15 | COc1ccc2sc(CNC(=O)C3(CC(=O)O)Cc4ccccc4C3)nc2c1 [Compound 3] | 150 | – | 64 | – | –
